Experimental data published in US7612071B2, “Compositions and methods employing aminopterin” (Syntrix Biosystems, Inc., priority 2004, dated 2009).

Assays:
[1] = Interpatient coefficient of variation of oral bioavailability; format: in vivo; settings: human, plasma, 2 mg/m2; AMT 2 mg/m^2 PO, pediatric and adult patients, n=27
Protocol: The term “interpatient coefficient of variation of oral bioavailability” as used herein refers to the coefficient of variation of oral bioavailability in a population of at least two patients, wherein the oral bioavailability is determined at least once for each patient in the population. Specifically, it is the standard deviation of oral bioavailability in the population divided by the interpatient oral bioavailability, expressed as a percent. […] It is sufficient to use a representative number of patients from a particular patient population to establish the interpatient coefficient of variation of oral bioavailability for that population, where at least 5 patients will be required in order to establish the interpatient coefficient of variation of oral bioavailability of a population.
The standard deviation of oral bioavailability and interpatient oral bioavailability were determined among 27 matched patients.
Pharmacol. 10(1):36, 1982].

[2] = Storage of aqueous compositions; format: physicochemical; settings: parenteral, oral liquid or other aqueous compositions
Description: Because of their ease of administration, tablets and capsules represent the most advantageous oral dosage form in adults, in which case solid pharmaceutical carriers are employed. If desired, tablets may be coated by standard aqueous or nonaqueous techniques. The parenteral dosage form can consist of a sterile solution of the active ingredient, either in its free or salt form, in physiological buffer or sterile water. In addition, parenteral solutions can contain preservatives such as benzalkonium chloride, methyl- or propyl-paraben and chlorobutanol. Suitable pharmaceutical carriers are described in Remington's Pharmaceutical Sciences, a standard reference text in this field. […] Accordingly, such aqueous compositions are best stored desiccated and hydrated within several hours to several days prior to patient administration.

[3] = AMT 2 mg/m^2, adult patients, n=13, prior art; cited from earlier work
[4] = prior art; cited from earlier work

SMILES: Nc1nc(N)c2nc(CNc3ccc(C(=O)N[C@@H](CCC(=O)O)C(=O)O)cc3)cnc2n1 [AMT]
- Interpatient coefficient of variation of oral bioavailability [1]: 42%
- stability of aqueous compositions (conversion of aminopterin to folic acid) [2]: accumulate folic acid to undesirable levels over the course of six months of storage
- Interpatient oral bioavailability (%) [3]: 85%
- Maximum (%) oral bioavailability [3]: 163%
- Minimum (%) oral bioavailability [3]: 32%
- potency relative to methotrexate [4]: at least 10 times
